Read-outs that look alike come from different tables or passages of the source.
Assay: Mitochondrial toxicity (Glu/Gal) assay
Assay type: cell-based
Settings: for Score: mitotoxicity score, Glu/Gal assay; for Δ IC50, glu/IC50, gal: ratio IC50 glu / IC50 gal
Description: The compounds of the invention/examples may have advantages associated with in vitro potency, kill kinetics (i.e. bactericidal effect) in vitro, PK properties, food effect, safety/toxicity (including liver toxicity, coagulation, 5-LO oxygenase), metabolic stability, Ames II negativity, MNT negativity, aqueous based solubility (and ability to formulate) and/or cardiovascular effect e.g. on animals (e.g. anesthetized guinea pig). Data that is generated/calculated may be obtained using standard methods/assays, for instance that are available in the literature or which may be performed by a supplier (e.g. Microsomal Stability Assay—Cyprotex, Mitochondrial toxicity (Glu/Gal) assay—Cyprotex, as well as literature CYP cocktail inhibition assays). GSH can be measured (reactive metabolites, glucuronidation) to observe if a dihydrodiol is observed by LCMS (fragmentation ions), which would correspond to a dihydroxylation on the core heterocycle.

[1] = galactose medium (Glu/Gal mitotoxicity assay), read-out: IC50, gal
[2] = glucose medium (Glu/Gal mitotoxicity assay), read-out: IC50, glu

| SMILES | Score | Δ IC50, glu/IC50, gal | IC50 (read-out: IC50, gal) [µM] | IC50 (read-out: IC50, glu) [µM] | IC50 [1] [µM] | IC50 [2] [µM] |
| --- | --- | --- | --- | --- | --- | --- |
| CCc1nc2sc(C)cn2c1C(=O)NCc1ccc(-c2nc3n(n2)CCN(S(=O)(=O)C(F)(F)F)C3)cc1 [Compound 36] | [x]0 | >1.26 | 79.5 | > 100 |  |  |
| CCc1nc2c(Cl)c(OC)ccn2c1C(=O)NCc1ccc(-c2nc3n(n2)CCN(S(=O)(=O)C(F)(F)F)C3)c(F)c1 [Compound 11] |  | >2.93 | 68.2 | > 200 |  |  |
| O=C(NCc1ccc(-c2nc3n(n2)CCN(S(=O)(=O)C(F)(F)F)C3)cc1)c1c(C(F)(F)F)nc2ccccn12 [Compound 122] |  |  |  |  | > 100 | > 100 |
| O=C(NCc1ccc(-c2nc3n(n2)CCN(S(=O)(=O)C(F)(F)F)C3)c(F)c1)c1c(C(F)F)nc2ccc(Cl)cn12 [Compound 5] | [x]1 | 0.96 | 117 | 112 |  |  |
| CCc1nc2n(c1C(=O)NCc1ccc(-c3nc4n(n3)CCN(S(=O)(=O)C(F)(F)F)C4)cc1)CCCC2 [Compound 31] |  |  |  |  | > 200 | > 200 |
| O=C(NCc1ccc(-c2cn3c(n2)CN(S(=O)(=O)C(F)(F)F)CC3)cc1)c1c(C(F)(F)F)nc2ccccn12 [Compound 115] |  | >3.08 | 64.8 | > 200 |  |  |
| CCc1nc2ncc(C)cn2c1C(=O)NCc1ncc(-c2nc3n(n2)CCN(S(=O)(=O)C(F)(F)F)C3)s1 [Compound 64] |  |  |  |  | > 200 | > 200 |
| O=C(NCc1ccc(-c2cc3n(n2)CCN(S(=O)(=O)C(F)(F)F)C3)cc1)c1c(C(F)F)nc2ccccn12 [Compound 120] | [x]3 | >8.01 | 25 | > 200 |  |  |
| CCc1nc2cc(C)c(C)cn2c1C(=O)NCc1ccc(-c2nc3n(n2)CCN(S(=O)(=O)C(F)(F)F)C3)cc1 [Compound 23] |  |  |  |  | > 200 | > 200 |
| CCc1nc2ncc(C)cn2c1C(=O)NC(C)(C)c1ccc(-c2nc3n(n2)CCN(S(=O)(=O)C(F)(F)F)C3)cc1 [Compound 83] | [x]1 | 1.12 | 127 | 142 |  |  |
| CCc1nc2ccc(C(C)C)cn2c1C(=O)NCc1ccc(-c2nc3n(n2)CCN(S(=O)(=O)C(F)(F)F)C3)cc1 [Compound 35] | [x]0 | >1.25 | 40.1 | > 50 |  |  |
| CCc1nc2ccc(C)cn2c1C(=O)NCc1ccc(-c2nc3n(n2)CCN(C)C3)cc1 [Compound 56] |  |  |  |  | > 200 | > 200 |
| CCc1nc2ccc(Cl)cn2c1C(=O)NCc1ccc(-c2cc3n(n2)CCN(S(=O)(=O)C(F)(F)F)C3)cc1 [Compound 118] | [x]1 | >1.57 | 127 | > 200 |  |  |
| CCc1nc2cc(OC)c(Cl)cn2c1C(=O)NCc1cnc(-c2nc3n(n2)CCN(S(=O)(=O)C(F)(F)F)C3)c(F)c1 [Compound 16] |  |  |  |  | > 200 | > 200 |
| CCc1nc2ccc(C)cn2c1C(=O)NCc1ccc(-c2nc3n(n2)CCNC3)cc1 [Compound 52] |  |  |  |  | > 200 | > 200 |
| CCc1nc2cc(C)c(Cl)cn2c1C(=O)NCc1ccc(-c2nc3n(n2)CCN(S(=O)(=O)C(F)(F)F)C3)c(F)c1 [Compound 9] | [x]1 | 1.15 | 19.9 | 22.9 |  |  |
| Cc1cnc2nc(C3CC3)c(C(=O)NCc3ccc(-c4cc5n(n4)CCN(S(=O)(=O)C(F)(F)F)C5)cc3)n2c1 [Compound 93] |  |  |  |  | > 200 | > 200 |
| CCc1nc2ncc(C)cn2c1C(=O)NCc1ccc(-c2nc3n(n2)CCNC3)cc1 [Compound 37] |  |  |  |  | > 200 | > 200 |
| CCc1nc2ccc(C)cn2c1C(=O)NCc1ccc(-c2nc3n(n2)CCN(S(=O)(=O)N2CCCC2)C3)cc1 [Compound 48] |  |  |  |  | > 200 | > 200 |

| SMILES | Score | Δ IC50, glu/IC50, gal | IC50 (read-out: IC50, gal) [µM] | IC50 (read-out: IC50, glu) [µM] | IC50 [1] [µM] | IC50 [2] [µM] |
| --- | --- | --- | --- | --- | --- | --- |
| Cc1cnc2nc(C3CC3)c(C(=O)NCc3cnc(-c4cc5n(n4)CCN(S(=O)(=O)C(F)(F)F)C5)c(F)c3)n2c1 [Compound 125] |  |  |  |  | > 200 | > 200 |
| CCc1nc2ncc(C)cn2c1C(=O)NCc1ccc(-c2nc3n(n2)CCN(C(C)=O)C3)cc1 [Compound 40] |  |  |  |  | > 200 | > 200 |
| Cc1cnc2nc(C3CC3)c(C(=O)NCc3ccc(-c4cc5n(n4)CCN(S(=O)(=O)CC(C)C)C5)cc3)n2c1 [Compound 108] | [x]0 | >1.29 | 38.6 | > 50 |  |  |
| Cc1nc2sc(Cl)cn2c1C(=O)NCc1ccc(-c2nc3n(n2)CCN(S(=O)(=O)C(F)(F)F)C3)cc1 [Compound 38] | [x]3 | >11.52 | 8.68 | > 100 |  |  |
| CCc1nc2ncc(C)cn2c1C(=O)NCc1nc(-c2nc3n(n2)CCN(S(=O)(=O)C(F)(F)F)C3)cs1 [Compound 75] |  |  | > 200 | > 200 |  |  |
| CCc1nc2ccc(Cl)cn2c1C(=O)NCc1ccc(-c2nc3n(n2)CCN(S(=O)(=O)C(F)(F)F)C3)c(F)c1 [Compound 3] | [x]1 | 0.91 | 73.1 | 66.2 |  |  |
| CCc1nc2ccc(F)cn2c1C(=O)NCc1ccc(-c2nc3n(n2)CCN(S(=O)(=O)C(F)(F)F)C3)cc1 [Compound 22] | [x]1 | 1.51 | 62.6 | 94.7 |  |  |
| CCc1nc2ncc(C)cn2c1C(=O)NCc1csc(-c2nc3n(n2)CCN(S(=O)(=O)C(F)(F)F)C3)n1 [Compound 73] |  |  | > 200 | > 200 |  |  |
| CCc1nc2ccc(C)cn2c1C(=O)NCc1ccc(-c2nc3n(n2)CCN(CCC#N)C3)cc1 [Compound 62] |  |  |  |  | > 200 | > 200 |
| CCc1nc2ncc(C)cn2c1C(=O)NCc1ccc(-c2nc3n(n2)CCN(C)C3)cc1 [Compound 50] |  |  |  |  | > 200 | > 200 |
| Cc1cnc2nc(C3CC3)c(C(=O)NCc3ccc(-c4cc5n(n4)CCN(S(C)(=O)=O)C5)cc3)n2c1 [Compound 99] |  |  |  |  | > 200 | > 200 |
| CCc1nc2ccc(C)cn2c1C(=O)NCc1ccc(-c2nc3n(n2)CCN(CCOC)C3)cc1 [Compound 55] | [x]1 | >1.15 | 174 | > 200 |  |  |
| Cc1cnc2nc(C3CC3)c(C(=O)NCc3ccc(-c4cc5n(n4)CCN(CC(F)(F)F)C5)cc3)n2c1 [Compound 107] | [x]0 | >1.13 | 44.2 | > 50 |  |  |
| CCc1nc2nc3c(cn2c1C(=O)NCc1ccc(-c2nc4n(n2)CCN(S(=O)(=O)C(F)(F)F)C4)cc1)CCC3 [Compound 45] |  |  |  |  | > 100 | > 100 |
| CCc1nc2ncc(C)cn2c1C(=O)NCc1ccc(-c2nc3n(n2)CCN(CCOC)C3)cc1 [Compound 54] |  |  |  |  | > 200 | > 200 |
| CCc1nc2ncc(C)cn2c1C(=O)NCc1ccc(-c2nc3n(n2)CCN(S(=O)(=O)C(F)(F)F)C3)s1 [Compound 57] |  |  |  |  | > 200 | > 200 |
| CCc1nc2ncc(C)cn2c1C(=O)NCc1ccc(-c2nc3n(n2)CCN(C(=O)C(F)(F)F)C3)cc1 [Compound 43] |  |  |  |  | > 200 | > 200 |
| CCc1nc2ncc(C)cn2c1C(=O)NCc1ccc(C2CCN(c3nc4n(n3)CCN(S(=O)(=O)C(F)(F)F)C4)C2)cc1 (centres unmarked) [Compound 69] | [x]3 | 11.37 | 15.3 | 174 |  |  |

Reference: patent US20240199651A1, “ANTIBACTERIAL COMPOUNDS” (JANSSEN SCIENCES IRELAND UNLIMITED COMPANY, priority 2021, published 2024)
